According to patent publication US11357778B2, “Antagonist of the fibroblast growth factor receptor 3 (FGFR3) for use in the treatment or the prevention of skeletal disorders linked with abnormal activation of FGFR3” (INSTITUT NATIONAL DE LA SANTE ET DE LE RECHERCHE MEDICALE …, priority 2011, dated 2022):

Test system: FGFR3^Y373C, FGFR3^K650E, FGFR3^K650M
Test: Constitutive FGFR3 phosphorylation in transfected human chondrocyte lines / HEK cells (immunoprecipitation, immunoblot, immunocytochemistry)
Assay type: cell-based
Experimental: Human Embryonic Kidney (HEK) cells and human chondrocyte lines (Benoist-Lasselin et al., FEBS Lett, 581: 2593-2598, 2007.) were transfected transiently with FGFR3 human constructs (FGFR^3Y373C, FGFR3^K650M, FGFR3^K650E) (Gibbs, L. and Legeai-Mallet, L. Biochim Biophys Acta, 1773: 502-512, 2007) using Fugene 6 (Roche). A31 (31) or PD173074 (Parke Davies) were added at a concentration of 2 mM overnight. Transfected cells were lysed in RIPA buffer (50 mM Tris-HCl pH 7.6, 150 mM NaCl, 0.5% NP40, 0.25% sodium deoxycholate, supplemented with protease and phosphatase inhibitors).
Immunoprecipitation were performed by incubating […] rabbit anti-FGFR3 (Sigma)/[…] protein with protein A-agarose (Roche). […] Bound proteins were detected by chemiluminescence (ECL, Amersham). The blots were rehybrididized with an antipan-actin antibody for quantification (Millipore).
For immunocytochemistry, the inventors used the following primary antibodies: anti-FGFR3 antibodies (1:400 dilution; Sigma) and anti-phosphotyrosine antibodies (1:200 dilution; Cell Signaling) and secondary antibodies Alexa Fluor®488 goat antirabbit and Alexa Fluor®568 goat anti-mouse (1:400 dilution; Molecular Probes). Cells were covered with Faramount Aquaeous Mounting Medium (Dako) and analyzed using an Olympus PD70-IX2-UCB microscope. […]

With `COc1cc(OC)cc(-c2cc3cnc(NCc4cn(CC5CCCN(C)C5)nn4)nc3nc2NC(=O)NC(C)(C)C)c1` (centres unmarked) [Compound A31] the “constitutive FGFR3 receptor phosphorylation (immunoprecipitation and Western blotting)” value (2 mM overnight, cells expressing FGFR3^Y373C, FGFR3^K650E, FGFR3^K650M) was “abolished receptor phosphorylation” and the “FGFR3 phosphorylation by immunocytochemistry” value (transfected cells expressing FGFR3 mutations, data not shown) was “complete inhibition”.
